The values below come from patent US8343963B2, “Sulfamoyl-phenyl-ureido compounds and their use as medicament” (4SC AG, priority 2009, dated 2013).

As usually defined, the IC50 is the concentration that inhibits the measured activity by half. The solubility is the dissolved amount per volume that the medium holds.

Data set [1] relates to multiresistant Dd2 strain of Plasmodium falciparum. Briefly: Antiplasmodial activity against Dd2 strain of Plasmodium falciparum ([8-3H]hypoxanthine incorporation). The format is cell-based. The following applies: 66 h, P. falciparum Dd2, 48 h + 18 h with [8-3H]hypoxanthine, 50% parasite growth inhibition, read-out: Antiplasmodia activity (IC50 class). The method, boiled down: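 Dd2 parasites at 0.3% parasitaemia and 2.5% haematocrit in RPMI 1640 with 10% human serum were exposed to 0.001–100 μM compound for 48 h. [8-3H]hypoxanthine was then added for a further 18 h and incorporation counted by scintillation. IC50 was fitted as 50% growth inhibition.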

A short description of data set [2]: Solubility and solubility-range determination in 50 mM phosphate buffer at different pH. The format is physicochemical. The following applies: aqueous buffer, kinetic from dmso stock, 1% DMSO, 23° C., read-out: Solubility or solubility range. Here is the method: The compounds were dissolved in DMSO at a concentration of 20 mg/ml. These stock solutions were further diluted 1:1 with DMSO (50 μl solution+50 μl DMSO) in seven steps. Subsequently, these solutions were diluted 1:100 (5 μl DMSO-stock+495 μl 50 mM phosphate buffer) in all four pH buffers (respectively: pH=4; pH=6; pH=7.4; pH=9) resulting in a final DMSO concentration of 1% in the buffers. These dilutions were vigorously mixed and transferred into 96-well reading plate. The plates were incubated in a shaker (600 rpm) at 23° C. for 24 hours. After that, the contents of the wells were mixed with a pipette and optical density (OD) was recorded at wavelengths of 550 nm; 600 nm; 650 nm and 700 nm in the Tecan Sunrise plate reader. The cut-off OD sum for an undissolved concentration of a compound was defined as follows: Cut off OD sum=mean blank OD+0.050 OD. For the determination of the solubility range, the following rule was applied: OD>cut off=>compound not dissolved at this concentration OD<cut-off=>compound dissolved at this concentration For the determination of the solubility, a titration curve (OD/concentration) was prepared and the concentrations were determined based on the measured OD of the mixture supernatant after centrifugation. The solubility values are given in μg/ml (table 3).

Data set [3] is described as follows: In vitro clearance using human liver microsomes. The data set is classed as in vitro ADME. The settings on record: human liver microsomes 0.5 mg/ml, 1 μM compound, 37° C., 0-30 min. Here is the method: These experiments were performed at Nikem Research (Via Zambeletti 25; Baranzate, Milan, Italy). Test compounds in duplicate at the final concentration of 1 μM were dissolved in DMSO and pre-incubated for 10 min at 37° C. in phosphate buffer pH 7.4, 3 mM MgCl2, with human liver microsomes at the final concentration of 0.5 mg/ml. After the pre-incubation period, reaction was started by adding the cofactor mixture (NADP, Glc6P, G6P-DH); samples were taken at time 0, 5, 10, 15, 20 and 30 min and added to acetonitrile to quench the metabolic reaction, centrifuged and supernatant analysed and quantified by HPLC/MS. A control sample without cofactors was always added in order to check the chemical stability of test compounds. 7-ethoxycoumarin was added as reference standard. A fixed concentration of verapamil was added in every sample as internal standard for HPLC/MS. The concentration of the remaining compound at different times was determined by HPLC/MS. The rate constant, k (min^−1) derived for the exponential decay equation (peak area vs time) was used to calculate the rate of intrinsic clearance (Cli) of the compounds using the following equations: Cli (μl/min/mg compound)=k×V; where: V (μl/mg compound)=incubation volume/mg compound added. In table 3 the clearance (in vitro metabolic stability) classification was as follows: Cli<10=compound stable; Cli between 10 and 60=low metabolism; Cli between 60 and 600=medium metabolism Cli>600=high metabolism.
In general terms: Microsomes from liver hold many membrane-bound enzymes, among them those of drug oxidation.

The structures appear in SMILES notation. Converted amounts (≈) assume the structure as drawn. Read-outs that look alike come from different tables or passages of the source. Bounds are passed on as bounds.

For the compound `CCCN1CCN(C(=N)c2cccc(NC(=O)Nc3ccc(S(=O)(=O)NCc4ccc(S(N)(=O)=O)cc4)cc3)c2)CC1` [Compound 38, 4-(3-(3-(imino(4-propylpiperazin-1-yl)methyl)phenyl)ureido)-N-(4-sulfamoylbenzyl)benzenesulfonamide], in data set [1], the IC50 is less than 20 nM. For the same compound, the solubility at 24 h in data set [2] (pH 4, 50 mM phosphate buffer) is greater than 200 µg/mL; in data set [2] (pH 6, 50 mM phosphate buffer) it was greater than 200 µg/mL; in data set [2] (pH 7.4, 50 mM phosphate buffer), greater than 200 µg/mL; in data set [2] (pH 9, 50 mM phosphate buffer), greater than 200 µg/mL. Besides, the “In vitro metabolism as determined from Cli” value (from here on “In vitro metabolism”) in data set [3] was “medium (Cli between 60 and 600=medium metabolism)”.
For the compound `COC(=O)N1CCN(C(=N)c2cccc(NC(=O)Nc3ccc(S(=O)(=O)NCc4ccc(S(N)(=O)=O)cc4)cc3)c2)CC1` [Compound 60, methyl 4-(imino(3-(3-(4-(N-(4-sulfamoylbenzyl)sulfamoyl)phenyl)ureido)phenyl)methyl)piperazine-1-carboxylate], in data set [1], the IC50 is less than 20 nM. The solubility at 24 h in data set [2] (pH 4, 50 mM phosphate buffer) was 1480 µg/mL (≈ 2350 µM); in data set [2] (pH 6, 50 mM phosphate buffer) it was 1290 µg/mL (≈ 2040 µM); in data set [2] (pH 7.4, 50 mM phosphate buffer), 763 µg/mL (≈ 1210 µM); in data set [2] (pH 9, 50 mM phosphate buffer), 456 µg/mL (≈ 724 µM). Besides, the “In vitro metabolism” value in data set [3] is “medium (Cli between 60 and 600=medium metabolism)”.
As for `CCC(=O)N1CCN(C(=N)c2cccc(NC(=O)Nc3ccc(S(=O)(=O)NCc4ccc(S(N)(=O)=O)cc4)cc3)c2)CC1` [Compound 58, 4-(3-(3-(imino(4-propionylpiperazin-1-yl)methyl)phenyl)ureido)-N-(4-sulfamoylbenzyl)benzenesulfonamide], the IC50 in data set [1] was less than 20 nM. For the same compound, the solubility at 24 h in data set [2] (pH 4, 50 mM phosphate buffer) was greater than 200 µg/mL; in data set [2] (pH 6, 50 mM phosphate buffer), greater than 200 µg/mL; in data set [2] (pH 7.4, 50 mM phosphate buffer), greater than 200 µg/mL; in data set [2] (pH 9, 50 mM phosphate buffer), greater than 200 µg/mL. For the same compound, the “In vitro metabolism” value in data set [3] is “low (Cli between 10 and 60=low metabolism)”.
Turning to `N=C(c1cccc(NC(=O)Nc2ccc(S(=O)(=O)NCc3ccc(S(N)(=O)=O)cc3)cc2)c1)N1CCN(CC2CC2)CC1` [Compound 66, 4-(3-(3-((4-(cyclopropylmethyl)piperazin-1-yl)(imino)methyl)phenyl)ureido)-N-(4-sulfamoylbenzyl)benzene sulfonamide], the IC50 in data set [1] is less than 20 nM. In data set [3], the “In vitro metabolism” value is “medium (Cli between 60 and 600=medium metabolism)”.
For `N=C(c1cccc(NC(=O)Nc2ccc(S(=O)(=O)NCc3ccc(S(N)(=O)=O)cc3)cc2)c1)N1CCNCC1` [Compound 52, 4-(3-(3-(imino(piperazin-1-yl)methyl)phenyl)ureido)-N-(4-sulfamoylbenzyl)benzenesulfonamide], the IC50 in data set [1] was in the range of 20 to 200 nM. Besides, the solubility at 24 h was greater than 200 µg/mL in data set [2] (pH 4, 50 mM phosphate buffer); greater than 200 µg/mL in data set [2] (pH 6, 50 mM phosphate buffer); greater than 200 µg/mL in data set [2] (pH 7.4, 50 mM phosphate buffer); greater than 200 µg/mL in data set [2] (pH 9, 50 mM phosphate buffer). The “In vitro metabolism” value in data set [3] is “low (Cli between 10 and 60=low metabolism)”.
As to `CN(C)C(=N)c1cccc(NC(=O)Nc2ccc(S(=O)(=O)NCc3ccc(S(N)(=O)=O)cc3)cc2)c1` [Compound 64, N,N-dimethyl-3-(3-(4-(N-(4-sulfamoylbenzyl)sulfamoyl)phenyl)ureido)benzimidamide], the IC50 in data set [1] fell in the range of 210 to 990 nM. For the same compound, the “In vitro metabolism” value in data set [3] was “low (Cli between 10 and 60=low metabolism)”.
`CCCCN1CCN(C(=N)c2cccc(NC(=O)Nc3ccc(S(N)(=O)=O)cc3)c2)CC1` [Compound 1, 4-(3-(3-((4-butylpiperazin-1-yl)(imino)methyl)phenyl)ureido)benzenesulfonamide]: the IC50 in data set [1] is no less than 1000 nM. Further, in data set [3], the “In vitro metabolism” value is “low (Cli between 10 and 60=low metabolism)”.
In the case of `CCCCN1CCN(C(=N)c2cccc(NC(=O)Nc3ccc(S(=O)(=O)NCc4ccc(S(N)(=O)=O)cc4)cc3)c2)CC1` [Compound 34, 4-(3-(3-((4-butylpiperazin-1-yl)(imino)methyl)phenyl)ureido)-N-(4-sulfamoylbenzyl)benzenesulfonamide], the IC50 in data set [1] is less than 20 nM. Besides, the solubility at 24 h in data set [2] (pH 4, 50 mM phosphate buffer) is 960 µg/mL (≈ 1530 µM); in data set [2] (pH 6, 50 mM phosphate buffer), 960 µg/mL (≈ 1530 µM); in data set [2] (pH 7.4, 50 mM phosphate buffer) it was 750 µg/mL (≈ 1190 µM); in data set [2] (pH 9, 50 mM phosphate buffer), 540 µg/mL (≈ 860 µM). The “In vitro metabolism” value in data set [3] is “medium (Cli between 60 and 600=medium metabolism)”.
As to `CCCCN1CCN(C(=N)c2cccc(NC(=O)Nc3ccc(S(=O)(=O)Nc4ccc(S(N)(=O)=O)cc4)cc3)c2)CC1` [Compound 23, 4-(3-(3-((4-butylpiperazin-1-yl)(imino)methyl)phenyl)ureido)-N-(4-sulfamoylphenyl)benzenesulfonamide], in data set [1], the IC50 is 210 to 990 nM. The “In vitro metabolism” value in data set [3] is “low (Cli between 10 and 60=low metabolism)”.
With `N#CCCN1CCN(C(=N)c2cccc(NC(=O)Nc3ccc(S(=O)(=O)NCc4ccc(S(N)(=O)=O)cc4)cc3)c2)CC1` [Compound 65, 4-(3-(3-((4-(2-cyanoethyl)piperazin-1-yl)(imino)methyl)phenyl)ureido)-N-(4-sulfamoylbenzyl)benzene sulfonamide], the IC50 in data set [1] is 210 to 990 nM. Further, the “In vitro metabolism” value in data set [3] is “medium (Cli between 60 and 600=medium metabolism)”.
As for `CCCCN1CCN(C(=N)c2cccc(NC(=O)Nc3ccc(S(=O)(=O)N4Cc5ccc(S(N)(=O)=O)cc5C4)cc3)c2)CC1` [Compound 41, 2-(4-(3-(3-((4-butylpiperazin-1-yl)(imino)methyl)phenyl)ureido)phenylsulfonyl)isoindoline-5-sulfonamide], in data set [1], the IC50 was 20 to 200 nM. For the same compound, the “In vitro metabolism” value in data set [3] is “medium (Cli between 60 and 600=medium metabolism)”.
